Experiments:
HCT-15 = test: cells; format: functional, cell-based, Homo sapiens; conditions: Homo sapiens, HCT-15;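 note: cell viability readout, IC50 reflecting suppression of HCT-15 cell growth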
Description: SANGER: Inhibition of human HCT-15 cell growth in a cell viability assay.

NCI-H1882 = test: cells; format: functional, cell-based; conditions: Homo sapiens;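 note: growth inhibition of the cell line, determined with a viability assay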
Description: SANGER: Inhibition of human NCI-H1882 cell growth in a cell viability assay.

TALL-1 = test: cells; format: functional, cell-based; conditions: Homo sapiens;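 note: growth inhibition of cultured human TALL-1 cells, read out by a cell viability assay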
Description: SANGER: Inhibition of human TALL-1 cell growth in a cell viability assay.

NCI-H1694 = test: cells; format: functional, cell-based; conditions: Homo sapiens;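 note: cell viability assay measuring inhibition of growth in human NCI-H1694 cells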
Description: SANGER: Inhibition of human NCI-H1694 cell growth in a cell viability assay.

TE-441-T = test: cells; format: functional, cell-based; conditions: Homo sapiens
Description: SANGER: Inhibition of human TE-441-T cell growth in a cell viability assay.

UACC-812 = test: cells; format: functional, cell-based; conditions: Homo sapiens
Description: SANGER: Inhibition of human UACC-812 cell growth in a cell viability assay.

PF-382 = test: cells; format: functional, cell-based; conditions: Homo sapiens
Description: SANGER: Inhibition of human PF-382 cell growth in a cell viability assay.

LC-1F = test: cells; format: functional, cell-based; conditions: Homo sapiens;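 note: growth inhibition of human LC-1F cells, read out with a cell viability assay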
Description: SANGER: Inhibition of human LC-1F cell growth in a cell viability assay.

KMS-12-PE = test: cells; format: functional, cell-based; conditions: Homo sapiens;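 note: growth inhibition of human KMS-12-PE cells, measured with a cell viability assay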
Description: SANGER: Inhibition of human KMS-12-PE cell growth in a cell viability assay.

BL-70 = test: SANGER: Inhibition of human BL-70 cell growth in a cell viability assay.; format: functional, cell-based
EB2 = test: cells; format: functional, cell-based; conditions: Homo sapiens;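 note: growth inhibition of EB2 cells, read out with a cell viability assay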
Description: SANGER: Inhibition of human EB2 cell growth in a cell viability assay.

SNU-423 = test: cells; format: functional, cell-based, Homo sapiens; conditions: Homo sapiens, SNU-423
Description: SANGER: Inhibition of human SNU-423 cell growth in a cell viability assay.

DMS-153 = test: cells; format: functional, cell-based; conditions: Homo sapiens
Description: SANGER: Inhibition of human DMS-153 cell growth in a cell viability assay.

NCI-H2081 = test: cells; format: functional, cell-based; conditions: Homo sapiens;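 note: growth inhibition of human NCI-H2081 cells, read out with a cell viability assay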
Description: SANGER: Inhibition of human NCI-H2081 cell growth in a cell viability assay.

EVSA-T = test: cells; format: functional, cell-based, Homo sapiens; conditions: Homo sapiens, EVSA-T;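 note: growth inhibition of EVSA-T cells, read out with a cell viability assay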
Description: SANGER: Inhibition of human EVSA-T cell growth in a cell viability assay.

SU-DHL-1 = test: SANGER: Inhibition of human SU-DHL-1 cell growth in a cell viability assay.; format: functional, cell-based
KARPAS-422 = test: cells; format: functional, cell-based; conditions: Homo sapiens
Description: SANGER: Inhibition of human KARPAS-422 cell growth in a cell viability assay.

NCI-H719 = test: cells; format: functional, cell-based; conditions: Homo sapiens;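 note: growth inhibition of the cultured cell line, read out with a viability assay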
Description: SANGER: Inhibition of human NCI-H719 cell growth in a cell viability assay.

RPMI-6666 = test: cells; format: functional, cell-based; conditions: Homo sapiens
Description: SANGER: Inhibition of human RPMI-6666 cell growth in a cell viability assay.

G-361 = test: cells; format: functional, cell-based, Homo sapiens; conditions: Homo sapiens, G-361
ECC12 = test: cells; format: functional, cell-based; conditions: Homo sapiens
Description: SANGER: Inhibition of human ECC12 cell growth in a cell viability assay.

BL-41 = test: cells; format: functional, cell-based; conditions: Homo sapiens;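 note: growth inhibition of human BL-41 cells, read out with a cell viability assay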
Description: SANGER: Inhibition of human BL-41 cell growth in a cell viability assay.

RL95-2 = test: cells; format: functional, cell-based; conditions: Homo sapiens;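 note: RL95-2 growth inhibition determined through a cell viability readout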
Description: SANGER: Inhibition of human RL95-2 cell growth in a cell viability assay.

NCI-H1522 = test: cells; format: functional, cell-based; conditions: Homo sapiens;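 note: growth inhibition of NCI-H1522 cells, read out with a cell viability assay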
Description: SANGER: Inhibition of human NCI-H1522 cell growth in a cell viability assay.

EHEB = test: cells; format: functional, cell-based; conditions: Homo sapiens;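 note: growth inhibition of human EHEB cells, read out with a cell viability assay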
Description: SANGER: Inhibition of human EHEB cell growth in a cell viability assay.

23132-87 = test: cells; format: functional, cell-based, Homo sapiens; conditions: Homo sapiens
Description: SANGER: Inhibition of human 23132-87 cell growth in a cell viability assay.

IMR-5 = test: cells; format: functional, cell-based; conditions: Homo sapiens;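 note: growth inhibition of human IMR-5 cells, read out with a cell viability assay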
Description: SANGER: Inhibition of human IMR-5 cell growth in a cell viability assay.

SCLC-21H = test: cells; format: functional, cell-based; conditions: Homo sapiens;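 note: growth inhibition of cultured human SCLC-21H cells, read out with a cell viability assay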
Description: SANGER: Inhibition of human SCLC-21H cell growth in a cell viability assay.

LP-1 = test: cells; format: functional, cell-based; conditions: Homo sapiens;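 note: growth inhibition of human LP-1 cells, with the read-out taken from a cell viability assay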
Description: SANGER: Inhibition of human LP-1 cell growth in a cell viability assay.

Daudi = test: cells; format: functional, cell-based; conditions: Homo sapiens;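 note: growth inhibition of Daudi cells, read out by a viability assay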
Description: SANGER: Inhibition of human Daudi cell growth in a cell viability assay.

CPC-N = test: cells; format: functional, cell-based; conditions: Homo sapiens;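 note: growth inhibition of CPC-N cells, with a cell viability assay as the readout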
Description: SANGER: Inhibition of human CPC-N cell growth in a cell viability assay.

HCC1599 = test: cells; format: functional, cell-based; conditions: Homo sapiens;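 note: growth inhibition of HCC1599 cells, read out in a cell viability assay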
Description: SANGER: Inhibition of human HCC1599 cell growth in a cell viability assay.

NCI-H522 = test: cells; format: functional, cell-based, Homo sapiens; conditions: Homo sapiens, NCI-H522;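 note: cell viability assay measuring growth inhibition of human NCI-H522 cells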
Description: SANGER: Inhibition of human NCI-H522 cell growth in a cell viability assay.

HuO9 = test: cells; format: functional, cell-based, Homo sapiens; conditions: Homo sapiens, HuO9;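 note: growth inhibition of HuO9 cells, read out with a cell viability assay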
Description: SANGER: Inhibition of human HuO9 cell growth in a cell viability assay.

NCI-H1703 = test: cells; format: functional, cell-based, Homo sapiens; conditions: Homo sapiens, NCI-H1703;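 note: growth inhibition of NCI-H1703 cells, read out via a cell viability assay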
Description: SANGER: Inhibition of human NCI-H1703 cell growth in a cell viability assay.

RPMI 8402 = test: SANGER: Inhibition of human RPMI-8402 cell growth in a cell viability assay.; format: functional, cell-based
L-540 = test: cells; format: functional, cell-based; conditions: Homo sapiens;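 note: growth inhibition of the human L-540 cell line, read out with a viability assay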
Description: SANGER: Inhibition of human L-540 cell growth in a cell viability assay.

CMK = test: cells; format: functional, cell-based; conditions: Homo sapiens;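 note: growth inhibition of CMK cells, read out as cell viability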
Description: SANGER: Inhibition of human CMK cell growth in a cell viability assay.

NCI-H1417 = test: cells; format: functional, cell-based; conditions: Homo sapiens;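 note: human NCI-H1417 cells, growth inhibition determined with a cell viability readout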
Description: SANGER: Inhibition of human NCI-H1417 cell growth in a cell viability assay.

NB1 = test: cells; format: functional, cell-based; conditions: Homo sapiens;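 note: reduction of NB1 cell proliferation, read out with a viability assay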
Description: SANGER: Inhibition of human NB1 cell growth in a cell viability assay.

SUP-T1 = test: cells; format: functional, cell-based; conditions: Homo sapiens;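 note: growth inhibition of human SUP-T1 cells, read out as cell viability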
Description: SANGER: Inhibition of human SUP-T1 cell growth in a cell viability assay.

MRK-nu-1 = test: cells; format: functional, cell-based; conditions: Homo sapiens;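 note: cell viability assay measuring growth suppression of human MRK-nu-1 cells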
Description: SANGER: Inhibition of human MRK-nu-1 cell growth in a cell viability assay.

JIYOYE = test: cells; format: functional, cell-based; conditions: Homo sapiens
Description: SANGER: Inhibition of human JiyoyeP-2003 cell growth in a cell viability assay.

NCCIT = test: SANGER: Inhibition of human NCCIT cell growth in a cell viability assay.; format: functional, cell-based
NCI-H2196 = test: cells; format: functional, cell-based; conditions: Homo sapiens;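 note: cell viability assay used as the readout of growth inhibition in NCI-H2196 cells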
Description: SANGER: Inhibition of human NCI-H2196 cell growth in a cell viability assay.

NCI-H1436 = test: cells; format: functional, cell-based; conditions: Homo sapiens;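 note: growth suppression of human NCI-H1436 cells, determined with a cell viability readout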
Description: SANGER: Inhibition of human NCI-H1436 cell growth in a cell viability assay.

CA46 = test: cells; format: functional, cell-based; conditions: Homo sapiens;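 note: growth inhibition of human CA46 cells, read out by a cell viability assay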
Description: SANGER: Inhibition of human CA46 cell growth in a cell viability assay.

HT55 = test: cells; format: functional, cell-based, Homo sapiens; conditions: Homo sapiens, HT55;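 note: cell viability readout measuring growth inhibition of human HT55 cells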
Description: SANGER: Inhibition of human HT55 cell growth in a cell viability assay.

Kasumi 1 = test: cells; format: functional, cell-based; conditions: Homo sapiens;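 note: growth inhibition of human Kasumi-1 cells, read out by a cell viability assay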
Description: SANGER: Inhibition of human KASUMI-1 cell growth in a cell viability assay.

ARH-77 = test: cells; format: functional, cell-based; conditions: Homo sapiens;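 note: growth inhibition of ARH-77 cells, read out by a cell viability assay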
Description: SANGER: Inhibition of human ARH-77 cell growth in a cell viability assay.

NCI-H748 = test: cells; format: functional, cell-based; conditions: Homo sapiens;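 note: growth inhibition of NCI-H748 cells, measured by a cell viability assay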
Description: SANGER: Inhibition of human NCI-H748 cell growth in a cell viability assay.

In the case of `COC(=O)CNC(=O)C(=O)OC`, the IC50 (HCT-15) is reported as 1820 µM, the IC50 (NCI-H1882) is reported as 134 µM and the IC50 (TALL-1) is reported as > 4 mM. It also gave an IC50 (NCI-H1694) of 291 µM, an IC50 (TE-441-T) of 1.87 mM and an IC50 (UACC-812) of 3.01 mM. For the same compound, the IC50 (PF-382) was 85.4 µM, the IC50 (LC-1F) was > 4 mM and the IC50 (KMS-12-PE) was 628 µM. The IC50 (BL-70) was 15.9 µM, the IC50 (EB2) was 297 µM and the IC50 (SNU-423) was 175 µM. The IC50 (DMS-153) was > 4 mM, the IC50 (NCI-H2081) was 1010 µM and the IC50 (EVSA-T) was > 4 mM. It also gave an IC50 (SU-DHL-1) of 125 µM, an IC50 (KARPAS-422) of 162 µM and an IC50 (NCI-H719) of 566 µM. For the same compound, the IC50 (RPMI-6666) was 228 µM, the IC50 (G-361) was 1180 µM and the IC50 (ECC12) was 1800 µM. For the same compound, the IC50 (BL-41) was 54.9 µM, the IC50 (RL95-2) was 3.59 mM and the IC50 (NCI-H1522) was > 4 mM. For the same compound, the IC50 (EHEB) was 271 µM, the IC50 (23132-87) was > 4000 µM and the IC50 (IMR-5) was 254 µM. For the same compound, the IC50 (SCLC-21H) was > 4 mM, the IC50 (LP-1) was 190 µM and the IC50 (Daudi) was 68.3 µM. For the same compound, the IC50 (CPC-N) was > 4 mM, the IC50 (HCC1599) was 129 µM and the IC50 (NCI-H522) was 293 µM. For the same compound, the IC50 (HuO9) was 589 µM, the IC50 (NCI-H1703) was 1660 µM and the IC50 (RPMI 8402) was 313 µM. The IC50 (L-540) was 239 µM, the IC50 (CMK) was 126 µM and the IC50 (NCI-H1417) was 2.38 mM. For the same compound, the IC50 (NB1) was 210 µM, the IC50 (SUP-T1) was 143 µM and the IC50 (MRK-nu-1) was 1800 µM. It also gave an IC50 (JIYOYE) of 291 µM, an IC50 (NCCIT) of 99.8 µM and an IC50 (NCI-H2196) of 2.96 mM. The IC50 (NCI-H1436) was > 4 mM, the IC50 (CA46) was 96 µM and the IC50 (HT55) was 554 µM. For the same compound, the IC50 (Kasumi 1) was 122 µM, the IC50 (ARH-77) was 260 µM and the IC50 (NCI-H748) was 254 µM.

`COc1cc([C@@H]2c3cc4c(cc3[C@@H](O[C@@H]3O[C@@H]5CO[C@@H](C)O[C@H]5[C@H](O)[C@H]3O)[C@H]3COC(=O)[C@H]23)OCO4)cc(OC)c1O` [ETOPOSIDE] was tested, and the IC50 (HCT-15) was 7.87 µM, the IC50 (NCI-H1882) was 2.68 µM and the IC50 (TALL-1) was > 0.016 mM. The IC50 (NCI-H1694) was 1.37 µM, the IC50 (TE-441-T) was > 0.016 mM and the IC50 (UACC-812) was > 0.016 mM. For the same compound, the IC50 (PF-382) was 0.724 µM, the IC50 (LC-1F) was > 0.016 mM and the IC50 (KMS-12-PE) was 9.91 µM. For the same compound, the IC50 (BL-70) was 7.07 µM, the IC50 (EB2) was 0.391 µM and the IC50 (SNU-423) was 1.75 µM. For the same compound, the IC50 (DMS-153) was > 0.016 mM, the IC50 (NCI-H2081) was 4.92 µM and the IC50 (EVSA-T) was > 0.016 mM. For the same compound, the IC50 (SU-DHL-1) was 0.959 µM, the IC50 (KARPAS-422) was 4.33 µM and the IC50 (NCI-H719) was > 16 µM. The IC50 (RPMI-6666) was 1.03 µM, the IC50 (G-361) was 0.834 µM and the IC50 (ECC12) was 0.954 µM. For the same compound, the IC50 (BL-41) was 2.08 µM, the IC50 (RL95-2) was 0.00111 mM and the IC50 (NCI-H1522) was > 0.016 mM. The IC50 (EHEB) was > 16 µM, the IC50 (23132-87) was 0.501 µM and the IC50 (IMR-5) was 0.469 µM. For the same compound, the IC50 (SCLC-21H) was > 0.016 mM, the IC50 (LP-1) was > 16 µM and the IC50 (Daudi) was 5.36 µM. The IC50 (CPC-N) was > 0.016 mM, the IC50 (HCC1599) was 0.616 µM and the IC50 (NCI-H522) was 3.36 µM. For the same compound, the IC50 (HuO9) was 0.926 µM, the IC50 (NCI-H1703) was 1.3 µM and the IC50 (RPMI 8402) was 0.271 µM. For the same compound, the IC50 (L-540) was 1.06 µM, the IC50 (CMK) was 2.68 µM and the IC50 (NCI-H1417) was 0.00461 mM. It also gave an IC50 (NB1) of 10.2 µM, an IC50 (SUP-T1) of 0.706 µM and an IC50 (MRK-nu-1) of 0.116 µM. For the same compound, the IC50 (JIYOYE) was 2.54 µM, the IC50 (NCCIT) was > 16 µM and the IC50 (NCI-H2196) was 0.00749 mM. For the same compound, the IC50 (NCI-H1436) was > 0.016 mM, the IC50 (CA46) was > 16 µM and the IC50 (HT55) was > 16 µM. For the same compound, the IC50 (Kasumi 1) was 1.32 µM, the IC50 (ARH-77) was 2.19 µM and the IC50 (NCI-H748) was 0.871 µM.
